*1 amine or outer side, *2 acyl side, *3 side chain or, on linkers, in order; H or OH if unused. Where a SMILES comes first, the peptide text is derived from it. [ ]: non-standard residue; d: D form. The star is where a group is joined. Phe(2-Me) = Cc1ccccc1C[C@H](N)C(=O)O; NleCONH2 = CCCC[C@H](N*)C(=O)C(N)=O; Suc = O=C(CCC(=O)[*:2])[*:1]; Tle = CC(C)(C)[C@H](N)C(=O)O
Test: Compound was tested for inhibition of Serine protease chymotrypsin

CCCC[C@H](NC(=O)[C@H](CC(C)C)NC(=O)[C@@H](NC(=O)[C@H](Cc1ccccc1C)NC(=O)[C@H](CCC(=O)O)NC(=O)[C@H](CC(=O)O)NC(=O)CCC(=O)O)C(C)(C)C)C(=O)C(N)=O [(S)-4-((S)-1-{(S)-1-[(S)-1-((R)-1-Aminooxalyl-pentylcarbamoyl)-3-methyl-butylcarbamoyl]-2,2-dimethyl-propylcarbamoyl}-2-o-tolyl-ethylcarbamoyl)-4-[(S)-3-carboxy-2-(3-carboxy-propionylamino)-propionylamino]-butyric acid] (Suc-DE[Phe(2-Me)][Tle]L-NleCONH2)
IC50: 0.3 µM

Source: BindingDB's records for doi:10.1016/s0960-894x(00)00654-5 (Roche Discover Welwyn, 2001)
